Literature values in patent publication EP0893690B1, “Detection of mycotoxins by flow-through membrane-based enzyme immunoassay” (priority 1997, dated 1999).

Experiments:
[1] = biological target: monoclonal anti-OA antibody (IgG1 with kappa light chains); details: association constant of the anti-OA antibody for its antigen OA; read-out: affinity constant (converted)
[2] = test system: monoclonal anti-OA antibody (IgG1 with kappa light chains); details: relative to OA; called weak

Row | Compound | Kd [1] [nM] | cross-reaction [2] [%]
1 | C[C@@H]1Cc2c(Cl)cc(C(=O)N[C@@H](Cc3ccccc3)C(=O)O)c(O)c2C(=O)O1 [OA, ochratoxin A] | 0.128 | –
2 | C[C@@H]1Cc2ccc(C(=O)N[C@@H](Cc3ccccc3)C(=O)O)c(O)c2C(=O)O1 [ochratoxin B] | – | 9.3
